Results published in ChEMBL document CHEMBL1128632, “The discovery of a series of new non-indole 5HT1D agonists” (Bioorg Med Chem Lett, 1995).

Columns and labels:
[1] = molecular target: T1, 5-hydroxytryptamine receptor 1A (Homo sapiens, UniProt P08908); assay: Ability to bind to 5-hydroxytryptamine 1A receptor from cloned human expressed in Ha7 cells; assay type: cell-based
T1 sequence (P08908 whole entry): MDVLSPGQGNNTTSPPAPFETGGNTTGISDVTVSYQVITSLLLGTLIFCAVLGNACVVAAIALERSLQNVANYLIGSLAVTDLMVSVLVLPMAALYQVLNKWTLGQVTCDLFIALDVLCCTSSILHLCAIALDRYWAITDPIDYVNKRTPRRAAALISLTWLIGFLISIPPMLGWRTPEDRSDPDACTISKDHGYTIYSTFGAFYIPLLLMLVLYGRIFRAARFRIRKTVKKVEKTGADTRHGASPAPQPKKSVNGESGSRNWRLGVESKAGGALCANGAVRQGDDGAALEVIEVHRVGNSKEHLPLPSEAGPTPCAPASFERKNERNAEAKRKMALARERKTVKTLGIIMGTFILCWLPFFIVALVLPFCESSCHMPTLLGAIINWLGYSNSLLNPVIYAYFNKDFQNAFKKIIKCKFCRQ

Canis familiaris = species: Canis familiaris; assay: Effective dose required to induce constriction of dog saphenous vein segments; assay type: functional; conditions: Canis lupus familiaris, read-out: ED50 (the source's name)
[2] = molecular target: T1, 5-hydroxytryptamine receptor 1A; assay: Ability to bind to 5-hydroxytryptamine 1A receptor subtype from cloned human expressed in Ha7 cells; assay type: cell-based
Sus scrofa [3] = species: Sus scrofa; assay: Ability to induce constriction of pig basilary artery.; assay type: functional; conditions: read-out: ED50 (the source's name)
Sus scrofa [4] = species: Sus scrofa; assay: Ability to induce constriction of pig basilary artery; assay type: functional; conditions: read-out: ED50 (the source's name)

SMILES	IC50 [1] [nM]	EC50 (Canis familiaris) [nM]	IC50 [2] [nM]	also measured
c1ccc2c(c1)CCC(CNCCCNc1ccncn1)O2 (stereo not given)	5.01	78.7	–	–
CC(C)/N=C(\N)NNCCCNCC1CCc2ccccc2O1 (stereo not given)	–	4.8	7.94	–
CN1c2ccccc2CCC1CNCCCNC1=NCCCN1 (stereo not given)	> 1000	> 1000	–	–
CC1(CNCCCNC2=NCCCN2)CCc2ccccc2O1 (stereo not given)	> 1000	> 1000	–	–
c1ccc2c(c1)OCC(CNCCCNC1=NCCCN1)O2 (stereo not given)	20	66.5	–	–
CC(C)/N=C(\NC#N)NCCCNCC1CCc2ccccc2O1 (stereo not given)	15.8	115	–	–
c1ccc2c(c1)CCC(CNCCCNC1=NCCCN1)C2 (stereo not given)	126	615	–	–
c1cnc(NCCCNCC2CCc3ccccc3O2)nc1 (stereo not given)	2	> 100	–	–
Clc1ccc(NCCCNCC2CCc3ccccc3O2)nn1 (stereo not given)	0.398	> 100	–	–
c1ccc2c(c1)CC(CNCCCNC1=NCCCN1)CO2 (stereo not given)	> 1000	> 1000	–	–
c1ccc(NCCCNCC2CCc3ccccc3O2)nc1 (stereo not given)	1.26	380	–	–
COc1ccc2c(c1)CCC(CNCCCNC1=NCCCN1)O2 (stereo not given)	–	> 1000	> 1000	–
c1cnc(NCCNCC2CCc3ccccc3O2)nc1 (stereo not given)	31.6	60	–	–
c1ccc2c(c1)CCCC(CNCCCNC1=NCCCN1)O2 (stereo not given)	> 1000	> 1000	–	–
c1ccc2c(c1)CCC(CNCCCNc1cnccn1)O2 (stereo not given)	3.98	15.5	–	–
c1ccc2c(c1)NCC(CNCCCNC1=NCCCN1)O2 (stereo not given)	> 1000	> 1000	–	–
c1ccc2c(c1)CCC(CNCCCNc1nc3ccccc3[nH]1)O2 (stereo not given)	> 100	> 1000	–	–
O=C1CCCN=C(NCCCNCC2CCc3ccccc3O2)N1 (stereo not given)	2	> 1000	–	–
c1ccc2c(c1)CC(CNCCCNC1=NCCCN1)O2 (stereo not given)	50.1	> 1000	–	–
c1ccc2c(c1)CCC(CNCCCNC1=NCCCC1)O2 (stereo not given)	6.31	17	–	–
CNS(=O)(=O)Cc1ccc2[nH]cc(CCN(C)C)c2c1	–	160	–	EC50 (Sus scrofa [4]): 558 nM
COc1cccc2c1CCC(CNCCCNC1=NCCCN1)O2 (stereo not given)	–	> 1000	> 1000	–
c1ccc2c(c1)CCC(CNCCCNc1nccs1)O2 (stereo not given)	1.58	570	–	–

Further lines, with some results ahead:

IC50 [1] [nM]	EC50 (Canis familiaris) [nM]	IC50 [2] [nM]	SMILES	also measured
–	1.93	3.98	CCc1ccc2c(c1)OC(CNCCCNC1=NCCCN1)CC2 (stereo not given)	–
–	49.4	15.8	c1ccc2c(c1)CCC(CNCCNC1=NCCCN1)O2 (stereo not given)	–
–	2.09	5.01	COc1cccc2c1OC(CNCCCNC1=NCCCN1)CC2 (stereo not given)	–
–	19.7	25.1	Fc1ccc2c(c1)CCC(CNCCCNC1=NCCCN1)O2 (stereo not given)	–
–	4.53	12.6	c1ccc2c(c1)CCC(CNCCCNC1=NCCCN1)O2 (stereo not given)	–
–	17.8	12.6	COc1ccc2c(c1)OC(CNCCCNC1=NCCCN1)CC2 (stereo not given)	–
–	11	7.94	c1ccc2c(c1)CCC(CNCCCCNC1=NCCCN1)O2 (stereo not given)	–
50.1	51.5	–	c1ccc2c(c1)CC[C@@H](CNCCCNC1=NCCCN1)O2	–
5.01	9.09	–	c1ccc2c(c1)CC[C@H](CNCCCNC1=NCCCN1)O2	EC50 (Sus scrofa [3]; Sus scrofa): 22.9 nM; EC50 (Sus scrofa [3]): 29.2 nM
12.6	31.5	–	c1ccc2c(c1)CCC(CNCCCNC1=NCCN1)O2 (stereo not given)	–
–	15.2	5.01	c1ccc2c(c1)CCC(CNCCCCCNC1=NCCCN1)O2 (stereo not given)	–
